Results as given in patent publication US20130184272A1, “DIABETES THERAPEUTIC AGENT” (TAKEDA PHARMACEUTICAL COMPANY LIMITED, priority 2010, published 2013).

Experiments:
[1] = system: Mouse-derived myoblast line C2C12 cell; assay: Cell differentiation promoting activity in myoblast (creatine kinase activity); assay type: cell-based; conditions: Mus musculus, C2C12, 48 h; compound at 0.01 μM (**); 2 days; without compound = 100%; read-out: creatine kinase activating action (%)
Protocol: • (1) Mouse-derived myoblast line C2C12 cell (Dainippon Pharmaceutical Co., Ltd.) was subcultured in a high glucose Eagle's modified Dulbecco's medium (GIBCO) added with 10% calf fetal bovine serum (GIBCO), 100 unit/mL penicillin and 100 μg/mL streptomycin (hereinafter to be referred to as a growth medium), plated at 5000 cells/cm^2 and cultured at 37° C., under 5% CO2. • (2) When the cells reached subconfluence of not less than 90%, the medium was exchanged with high glucose Eagle's modified Dulbecco's medium (GIBCO) added with (i) 2% horse serum (GIBCO) and (ii) penicillin, streptomycin and a test compound (hereinafter to be referred to as a differentiation medium) and the cells were cultured for 2 days. To the control group was added DMSO solution instead of the test compound. • (3) The cells were washed with PBS, 0.5% NP-40 solution was added, and the cells were lysed by freeze-thawing. The cell extract was centrifuged and the creatine kinase activity in the supernatant was measured as an index of muscle differentiation. The creatine kinase activity was measured using CPKII Test Wako (Wako Pure Chemical Industries, Ltd.) according to the manual of the kit.
The numerical values in Table 1 show creatine kinase activity of the compound addition group when the creatine kinase activity without addition of the compound is 100%, and * means measurement with addition of the compound at 10 μM, ** at 0.01 μM, and others at 1 μM.

C2C12 cells = assay: ATP content in muscle cell; assay type: cell-based, Mouse; conditions: for ATP content: two days, control group 100
Protocol: • (1) In the same manner as in Example 1, C2C12 cells were cultured in a growth medium to not less than 90% confluence. • (2) The medium was exchanged with a differentiation medium, and the cells were cultured until observation of myotube formation under a microscope. • (3) The compounds of Reference Example 1 and Reference Example 7 were added, and the cells were cultured for two days. • (4) ATP content was measured using Cell Titer-Glo™ Luminescence cell viable assay (Promega) and succinic acid dehydrogenase activity of mitochondria was measured using Cell Counting Kit-8 (Dojin). The data of Table 17 show mean±standard deviation at n=3-4 (n is the number of samples).

[2] = system: Male C57BL/6J mice on a high-fat diet; assay: Antiobesity, dyslipidemia and diabetes improving effect in mouse fed with high-fat diet; assay type: in vivo; set-up: plasma leptin (mg/dL): unit not given here; conditions: for epididymal fat mass / gastrocnemius muscle weight (g/100 g body weight) / hepatocyte weight / mesenteric fat mass: Day 38
Protocol: Male C57BL/6J mice (CLEA Japan, Inc.) were bred from 5-week-old on a high-fat diet (D12451, research diet) while allowing free ingestion of both feed and water to prepare obesity mice. The mice were bred for acclimation for 2 weeks from 21-week-old. The body weight and plasma markers were measured when 23-week-old, the mice were divided into 6 groups (6 per group) such that the values thereof were uniform, and Reference Example 1 (0.01-0.1 mg/kg) or Reference Example 7 (1-3 mg/kg) was orally administered for 5 weeks. After 14 and 28 days, plasma levels of total cholesterol, neutral lipid, glucose, insulin, leptin, adiponectin and glycated hemoglobin were measured. On the last day, the mice were autopsied, and weights of mesenteric fat, epididymal fat, liver and gastrocnemius muscle were measured. The data of Table 18 show mean±standard deviation at n=5-6 (n is the number of samples).

Structure (SMILES): Cn1ncc2c1-c1c(Oc3cccnc3)sc(C(N)=O)c1CC2 [Ref. Ex. 7, 1-methyl-8-(pyridin-3-yloxy)-4,5-dihydro-1H-thieno[3,4-g]indazole-6-carboxamide]
- activity at 0.01 µM [1]: 183%
- ATP content of muscle cells (in words) (C2C12 cells): did not decrease
- ATP content (C2C12 cells; compound 1 nM): 106 ± 2
- ATP content (C2C12 cells; compound 10 nM): 111 ± 3
- ATP content (C2C12 cells; compound 100 nM): 103 ± 4
- average amount of ingestion ([2]; 1 mg/kg oral): 3.6 ± 0.2 g/day
- body weight (g) change ([2]; 1 mg/kg oral): 4.0 ± 1.5 g
- body weight ([2]; 1 mg/kg oral, Day 0): 41.2 ± 1.8 g
- glycated hemoglobin (%) ([2]; 1 mg/kg oral, Day 0): 4.4 ± 0.1%
- plasma adiponectin (μg/dL)) ([2]; 1 mg/kg oral, Day 0): 18.3 ± 2.8 µg/dL
- plasma glucose ([2]; 1 mg/kg oral, Day 0): 168.4 ± 29.1 mg/dL
- plasma insulin ([2]; 1 mg/kg oral, Day 0): 5.3 ± 3.5 ng/mL
- plasma leptin (mg/dL) ([2]; 1 mg/kg oral, Day 0): 61.4 ± 18.1
- plasma neutral fats ([2]; 1 mg/kg oral, Day 0): 69.8 ± 35.0 mg/dL
- plasma total cholesterol ([2]; 1 mg/kg oral, Day 0): 227.2 ± 21.2 mg/dL
- glycated hemoglobin (%) ([2]; 1 mg/kg oral, Day 14): 4.2 ± 0.2%
- plasma adiponectin (μg/dL)) ([2]; 1 mg/kg oral, Day 14): 14.9 ± 3.4 µg/dL
- plasma glucose ([2]; 1 mg/kg oral, Day 14): 157.5 ± 19.4 mg/dL
- plasma insulin ([2]; 1 mg/kg oral, Day 14): 7.8 ± 3.3 ng/mL
- plasma leptin (mg/dL) ([2]; 1 mg/kg oral, Day 14): 86.9 ± 12.0
- plasma neutral fats ([2]; 1 mg/kg oral, Day 14): 68.8 ± 16.0 mg/dL
- plasma total cholesterol ([2]; 1 mg/kg oral, Day 14): 213.8 ± 13.0 mg/dL
- glycated hemoglobin (%) ([2]; 1 mg/kg oral, Day 28): 4.0 ± 0.1%
- plasma adiponectin (μg/dL)) ([2]; 1 mg/kg oral, Day 28): 12.2 ± 2.3 µg/dL
- plasma glucose ([2]; 1 mg/kg oral, Day 28): 149.7 ± 16.9 mg/dL
- plasma insulin ([2]; 1 mg/kg oral, Day 28): 12.3 ± 4.9 ng/mL
- plasma leptin (mg/dL) ([2]; 1 mg/kg oral, Day 28): 96.1 ± 10.2
- plasma neutral fats ([2]; 1 mg/kg oral, Day 28): 62.1 ± 26.1 mg/dL
- plasma total cholesterol ([2]; 1 mg/kg oral, Day 28): 216.8 ± 20.7 mg/dL
- body weight ([2]; 1 mg/kg oral, Day 37): 45.6 ± 3.0 g
- epididymal fat mass ([2]; 1 mg/kg oral): 0.78 ± 0.11 g
- gastrocnemius muscle weight (g/100 g body weight) ([2]; 1 mg/kg oral): 0.360 ± 0.014 g/100 g body weight
- hepatocyte weight ([2]; 1 mg/kg oral): 1.85 ± 0.30 g
- mesenteric fat mass ([2]; 1 mg/kg oral): 0.95 ± 0.14 g
- average amount of ingestion ([2]; 3 mg/kg oral): 3.7 ± 0.2 g/day
- body weight (g) change ([2]; 3 mg/kg oral): 2.3 ± 2.3 g
- body weight ([2]; 3 mg/kg oral, Day 0): 41.1 ± 1.7 g
- glycated hemoglobin (%) ([2]; 3 mg/kg oral, Day 0): 4.6 ± 0.1%
- plasma adiponectin (μg/dL)) ([2]; 3 mg/kg oral, Day 0): 17.0 ± 2.9 µg/dL
- plasma glucose ([2]; 3 mg/kg oral, Day 0): 176.9 ± 30.1 mg/dL
- plasma insulin ([2]; 3 mg/kg oral, Day 0): 5.1 ± 2.3 ng/mL
- plasma leptin (mg/dL) ([2]; 3 mg/kg oral, Day 0): 62.3 ± 10.9
- plasma neutral fats ([2]; 3 mg/kg oral, Day 0): 71.6 ± 28.8 mg/dL
- plasma total cholesterol ([2]; 3 mg/kg oral, Day 0): 231.9 ± 29.9 mg/dL
- glycated hemoglobin (%) ([2]; 3 mg/kg oral, Day 14): 4.0 ± 0.3%
- plasma adiponectin (μg/dL)) ([2]; 3 mg/kg oral, Day 14): 15.2 ± 3.0 µg/dL
- plasma glucose ([2]; 3 mg/kg oral, Day 14): 172.8 ± 32.3 mg/dL
- plasma insulin ([2]; 3 mg/kg oral, Day 14): 6.2 ± 3.0 ng/mL
- plasma leptin (mg/dL) ([2]; 3 mg/kg oral, Day 14): 73.5 ± 12.6
- plasma neutral fats ([2]; 3 mg/kg oral, Day 14): 47.0 ± 9.2 mg/dL
- plasma total cholesterol ([2]; 3 mg/kg oral, Day 14): 192.8 ± 12.5 mg/dL
- glycated hemoglobin (%) ([2]; 3 mg/kg oral, Day 28): 4.0 ± 0.2%
- plasma adiponectin (μg/dL)) ([2]; 3 mg/kg oral, Day 28): 12.8 ± 0.8 µg/dL
- plasma glucose ([2]; 3 mg/kg oral, Day 28): 155.9 ± 12.7 mg/dL
- plasma insulin ([2]; 3 mg/kg oral, Day 28): 5.8 ± 1.4 ng/mL
- plasma leptin (mg/dL) ([2]; 3 mg/kg oral, Day 28): 77.3 ± 16.3
- plasma neutral fats ([2]; 3 mg/kg oral, Day 28): 53.6 ± 35.6 mg/dL
- plasma total cholesterol ([2]; 3 mg/kg oral, Day 28): 194.1 ± 18.4 mg/dL
- body weight ([2]; 3 mg/kg oral, Day 37): 44.0 ± 2.4 g
- epididymal fat mass ([2]; 3 mg/kg oral): 0.77 ± 0.15 g
- gastrocnemius muscle weight (g/100 g body weight) ([2]; 3 mg/kg oral): 0.375 ± 0.020 g/100 g body weight
- hepatocyte weight ([2]; 3 mg/kg oral): 1.74 ± 0.30 g
- mesenteric fat mass ([2]; 3 mg/kg oral): 0.77 ± 0.24 g
- body weight (in words) ([2]; obese mouse model fed with a high-fat diet): clear body weight decreasing action
